Assay results published in patent US20100310535A1, “METHOD FOR EXPANDING HEMATOPOIETIC STEM CELLS USING HETEROCYCLIC COMPOUND” (Nissan Chemical Industries, Ltd., priority 2007, published 2010).

The molecules below were run on human cord blood-derived CD34^+ cells (assay: Expansion of CD34^+ cells from human cord blood-derived CD34^+ cells (7-day liquid culture with SCF, flow cytometry)). Conditions: 168 h, 0.3 μg/mL compound, based on the number of CD34^+ cells in the absence of compound, 100 ng/mL SCF, 7 days, read-out: Expansion efficiency.
Format: cell-based
Experimental: Commercially available human cord blood-derived CD34^+ cells (Cambrex Bio Science Walkersville) were plated on a 12-well plate (Corning) (from 5000 to 10000 cells/1 mL/well). As the culture medium, StemSpan SFEM (Stemcell Technologies) containing 100 ng/mL SCF (R&D Systems) was used, and Compounds Nos. 1 to 16 dissolved in dimethyl sulfoxide were added in an amount of 0.1% (v/v) to a final concentration of 0.3 or 1 μg/mL.
After the cells were incubated in liquid culture at 37° C. for 7 days in a CO2 incubator (in an atmosphere containing 5 vol % CO2), the total number of cells was counted by trypan blue assay (Invitrogen) or Flow-Count™ fluorosphere assay (Beckman Coulter). The number of CD34^+ cells was calculated as follows. After the incubation, the cells in the liquid culture was stained with a CD34 antibody (PE, Becton, Dickinson and Company). The stained cells were analyzed with a flow cytometer (Beckman Coulter) to determined the proportion of CD34^+ cells, which was multiplied by the total number of cells to calculate the number of CD34^+ cells.
The expansion efficiencies in the presence of 0.3 μg/mL or 1 μg/mL of compounds based on the number of CD34^+ cells in the absence of them are shown in Table 3 on a scale of A for expansion efficiencies of 3 or greater, B for expansion efficiencies of at least 2 and less than 3, and C for expansion efficiencies of at least 1.5 and less than 2.

Row | SMILES | fold induction at 0.3 µg/mL
1 | C/C(=N\NC(=S)N1CCC(C(=O)NCc2ccncc2)CC1)c1csc(-c2ccc(Br)cc2)c1O [compound 14] | 1.5 to 2
2 | C/C(=N\NC(=S)N1CCC(C(=O)NCC(=O)O)CC1)c1csc(-c2ccc(Br)cc2)c1O [compound 16] | 2 to 3

Same assay, conditions: 168 h, 1 μg/mL compound, based on the number of CD34^+ cells in the absence of compound, 100 ng/mL SCF, 7 days, read-out: Expansion efficiency

Row | SMILES | fold induction at 1 µg/mL
3 | C/C(=N\NC(=S)N1CCC(C(=O)O)CC1)c1csc(-c2ccc(Cl)c(Cl)c2)c1O [compound 1] | 2 to 3
4 | C/C(=N\NC(=S)N1CCC(C(=O)O)CC1)c1csc(-c2ccc(C(F)(F)F)cc2)c1O [compound 2] | 2 to 3
5 | C/C(=N\NC(=S)N1CCC(C(=O)O)CC1)c1nn(C)c(-c2ccc(C(F)(F)F)cc2)c1O [compound 3] | 1.5 to 2
6 | COC(=O)C1CCN(C(=S)N/N=C(\C)c2nn(C)c(-c3ccc(Cl)c(Cl)c3)c2O)CC1 [compound 4] | 1.5 to 2
7 | COC(=O)C1CCN(C(=S)N/N=C(\C)c2csc(-c3ccc(OC)cc3)c2O)CC1 [compound 5] | 1.5 to 2
8 | COc1ccc(-c2scc(/C(C)=N/NC(=S)N3CCC(C(=O)O)CC3)c2O)cc1 [compound 6] | ≥ 3
9 | C/C(=N\NC(=S)N1CCC(C(=O)O)CC1)c1csc(-c2ccc(C(C)(C)C)cc2)c1O [compound 7] | ≥ 3
10 | C/C(=N\NC(=S)N1CCC(C(=O)O)CC1)c1csc(-c2ccc(Br)cc2)c1O [compound 8] | ≥ 3
11 | CCCNC(=O)C1CCN(C(=S)N/N=C(\C)c2nn(C)c(-c3ccc(C(F)(F)F)cc3)c2O)CC1 [compound 9] | 2 to 3
12 | C/C(=N\NC(=S)N1CCC(C(=O)O)CC1)c1csc(-c2ccc(C)c(C)c2)c1O [compound 10] | ≥ 3
13 | C/C(=N\NC(=S)N1CCC(C(=O)O)CC1)c1csc(-c2ccc(OC(F)(F)F)cc2)c1O [compound 11] | ≥ 3
14 | C/C(=N\NC(=S)N1CCC(C(=O)O)CC1)c1csc(-c2cccc(Cl)c2)c1O [compound 12] | 2 to 3
15 | C/C(=N\NC(=S)N1CCC(C(=O)O)CC1)c1csc(-c2ccc(Cl)cc2)c1O [compound 13] | ≥ 3
